Reference: patent US20090041839A1, “PHARMACEUTICAL COMPOSITIONS FOR THE TREATMENT OF PAIN” (priority 2007, published 2009)
Read-outs that look alike come from different tables or passages of the source.

Assay: Single escalating dose, age and food-effect pharmacokinetic study of T-62 soft gelatin capsules (Example 11)
Format: in vivo
Settings: human, plasma, po; for AUC(0-inf) / Cmax / AUC(0-t): arithmetic mean (SD); for AUC(0-t): read-out: AUC0-48; for Tmax: median
Description: A single-center, 3-part study: Parts A and B were randomized, double-blind, and placebo-controlled, and evaluated the safety, tolerability, and pharmacokinetics of single, escalating dose levels of a T-62 composition in soft gelatin capsules (oral dosage form 4) in young healthy subjects (Part A), and a single dose of a T-62 composition in soft gelatin capsules (oral dosage form 4) in elderly healthy subjects (Part B). In Part C, the effect of food on the bioavailability of a single dose of T-62 (oral dosage form 4) in young healthy subjects was evaluated in an open label, randomized, crossover fashion.
Part A: The dose escalation phase of the study consisted of 6 cohorts of 12 young (18-45 years of age) healthy volunteers, a total of 72 subjects, randomly assigned in a 3:1 allocation to receive a single dose of either T-62 or placebo under fasted conditions. For all cohorts, subjects fasted for a minimum of 7 hours pre-dose to 4 hours post-dose. Subjects in the first cohort received a single dose of 100 mg of T-62 (n=9) or placebo (n=3). Subsequent cohorts of 12 new subjects received placebo or a higher dose level of T-62: Nine subjects in each cohort received a total of 2×100, 4×100, 8×100, 10×100 or 12×100 mg capsules of T-62; three subjects per dose level received placebo.
Part B: A total of 15 elderly subjects (≧65 years of age) were randomly assigned in a 4:1 allocation to receive a single dose of 4×100 mg of T-62 (n=12) or placebo (n=3) under fasted conditions, i.e., subjects were fasted for a minimum of 7 hours pre-dose to 4 hours post-dose.
Part C: A single cohort of 16 young (18-45 years of age) healthy volunteers were enrolled to evaluate the effect of food on the bioavailability and pharmacokinetics of a single-dose of 4×100 mg soft gelatin capsules of T-62. Subjects were randomly assigned in a 1:1 allocation to 1 of 2 treatment sequences (i.e., fed/fasted or fasted/fed) in a crossover fashion.
Each subject in Parts A and B completed Screening, Baseline, Treatment, and Follow-Up Phases. The Screening Phase was conducted on an outpatient basis within 30 days, but no less than 3 days, prior to the start of the Baseline Phase. The Baseline Phase consisted of clinical research unit (CRU) admission and final qualification assessments. The Treatment Phase was comprised of dosing, post-treatment safety assessments, and blood collections. Subjects were discharged approximately 50 hours after study drug administration on Day 3. The Follow-Up Phase occurred 2 to 4 days after discharge from the CRU.
Each subject in Part C completed a Screening Phase, Baseline and Treatment Phases for both crossover Dosing Periods I and II, and a single Follow-Up Phase. The Screening Phase was conducted on an outpatient basis within 30 days, but no less than 3 days, prior to the start of the Baseline Phase for Dosing Period I. Each Baseline Phase consisted of CRU admission and final/continuing qualification assessments. Each Treatment Phase was comprised of dosing, post-treatment safety assessments, and blood collections. T-62 was administered and post-treatment assessments were conducted on Day 1 of Dosing Period I. Subjects were discharged approximately 50 hours after study drug administration on Day 3. Following a 3-day washout, subjects crossed over and entered Dosing Period II. Subjects were re-admitted to the CRU one day before T-62 administration in Dosing Period II for Baseline assessments. T-62 was be administered and post-treatment assessments were conducted on Day 1 of Dosing Period II. Subjects were discharged approximately 50 hours after study drug administration on Day 3. The Follow-Up Phase occurred 2 to 4 days after discharge from the CRU following Dosing Period II. For each Dosing period, subjects randomized to receive T-62 under fed conditions were given a high fat breakfast on Day 1 about half an hour prior to dosing. Fasting subjects were not allowed to eat any food beginning a minimum of 7 hours pre-dose to 4 hours post-dose. […]

[1] = 100 mg, Part A, young healthy subjects, fasted, single oral dose 100 mg (oral dosage form 4), n = 9
[2] = 200 mg, Part A, young healthy subjects, fasted, single oral dose 2 × 100 mg (oral dosage form 4), n = 9
[3] = 400 mg, Part A, young healthy subjects, fasted, single oral dose 4 × 100 mg (oral dosage form 4), n = 9
[4] = 400 mg, Part B, elderly healthy subjects, fasted, single oral dose 4 × 100 mg (oral dosage form 4), n = 12
[5] = 400 mg, Part C, Fasted, young healthy subjects, single oral dose 4 × 100 mg (oral dosage form 4), n = 14
[6] = 400 mg, Part C, Fed, young healthy subjects, single oral dose 4 × 100 mg (oral dosage form 4), n = 16
[7] = 800 mg, Part A, young healthy subjects, fasted, single oral dose 8 × 100 mg (oral dosage form 4), n = 9
[8] = 1000 mg, Part A, young healthy subjects, fasted, single oral dose 10 × 100 mg (oral dosage form 4), n = 9
[9] = 1200 mg, Part A, young healthy subjects, fasted, single oral dose 12 × 100 mg (oral dosage form 4), n = 9

Nc1sc2c(c1C(=O)c1ccc(Cl)cc1)CCCC2 [T-62, (2-amino-4,5,6,7-tetrahydrobenzo[b]thiophen-3-yl)(4-chlorophenyl)-methanone]
AUC(0-inf) [1]: 106 ng·h/mL | Cmax [1]: 30 ng/mL | AUC(0-t) [1]: 92.2 ng·h/mL | Tmax [1]: 2 h | AUC(0-inf) [2]: 242 ng·h/mL | Cmax [2]: 47.7 ng/mL | AUC(0-t) [2]: 224 ng·h/mL | Tmax [2]: 1 h | AUC(0-inf) [3]: 557 ng·h/mL | Cmax [3]: 110 ng/mL | AUC(0-t) [3]: 525 ng·h/mL | Tmax [3]: 2 h | AUC(0-inf) [4]: 1290 ng·h/mL | Cmax [4]: 227 ng/mL | AUC(0-t) [4]: 1200 ng·h/mL | Tmax [4]: 1.8 h | AUC(0-inf) [5]: 576 ng·h/mL | Cmax [5]: 95.8 ng/mL | AUC(0-t) [5]: 533 ng·h/mL | Tmax [5]: 2.3 h | AUC(0-inf) [6]: 933 ng·h/mL | Cmax [6]: 154 ng/mL | AUC(0-t) [6]: 884 ng·h/mL | Tmax [6]: 3.5 h | AUC(0-inf) [7]: 1020 ng·h/mL | Cmax [7]: 165 ng/mL | AUC(0-t) [7]: 978 ng·h/mL | Tmax [7]: 3.5 h | AUC(0-inf) [8]: 1460 ng·h/mL | Cmax [8]: 213 ng/mL | AUC(0-t) [8]: 1370 ng·h/mL | Tmax [8]: 3 h | AUC(0-inf) [9]: 1200 ng·h/mL | Cmax [9]: 157 ng/mL | AUC(0-t) [9]: 1110 ng·h/mL | Tmax [9]: 3.5 h
